The test system of the first data set is Oryza sativa. Nature of the data set: Effect on Oryza sativa (rice) assessed as growth rate at 1 uM relative to control. The conditions noted are these: in vivo. In kind it is organism-based.
As to `CCOC(=O)c1ccc(NC(=O)N[C@@H](C)c2ccccc2)cc1`, the Activity stood at 97%.

As for `C[C@H](NC(=O)Nc1cc(F)cc(F)c1)c1ccccc1`, the Activity is reported as 99%.

With `C[C@@H](NC(=O)Nc1ccc(Cl)cc1)c1ccccc1`, the Activity amounted to 95%.

Regarding `C[C@H](NC(=O)Nc1cc(C(F)(F)F)ccc1F)c1ccccc1`, the Activity worked out at 89%.

Consider `CCCCCCCc1ccc(NC(=O)N[C@H](C)c2ccccc2)cc1`, for which the Activity came out at 100%.

For the molecule `CCCCc1ccc(NC(=O)N[C@H](C)c2ccccc2)cc1`, the Activity came to 32%.

`C[C@@H](NC(=O)Nc1ccc(F)cc1F)c1ccccc1`: the Activity was 100%.

Turning to `COc1ccccc1NC(=O)N[C@H](C)c1ccccc1`, the Activity was determined as 105%.

In the case of `C[C@@H](NC(=O)Nc1cc(Cl)ccc1Cl)c1ccccc1`, the Activity came to 100%.

`C[C@@H](NC(=O)Nc1cc(C(C)(C)C)ccc1C(C)(C)C)c1ccccc1`: the Activity was 99%.

A further data set concerns Oryza sativa. Nature of the data set: Relieving activity against bensulfuron-methyl induced injury to Oryza sativa (rice) assessed as growth rate at 1 uM (Rbv = 46 to 53%). The format is functional.
Conditions: not given
Turning to `CCOC(=O)c1ccc(NC(=O)N[C@@H](C)c2ccccc2)cc1`, the Activity was 87%.

As to `C[C@H](NC(=O)Nc1cc(F)cc(F)c1)c1ccccc1`, the Activity came out at 79%.

On to `C[C@@H](NC(=O)Nc1ccc(Cl)cc1)c1ccccc1`, for which the Activity stood at 80%.

For the molecule `C[C@H](NC(=O)Nc1cc(C(F)(F)F)ccc1F)c1ccccc1`, the Activity was 79%.

For the molecule `CCCCCCCc1ccc(NC(=O)N[C@H](C)c2ccccc2)cc1`, the Activity is reported as 52%.

As for `CCCCc1ccc(NC(=O)N[C@H](C)c2ccccc2)cc1`, the Activity turned out to be 38%.

As to `C[C@@H](NC(=O)Nc1ccc(F)cc1F)c1ccccc1`, the Activity is 61%.

For `COc1ccccc1NC(=O)N[C@H](C)c1ccccc1`, the Activity was 55%.

Take `C[C@@H](NC(=O)Nc1cc(Cl)ccc1Cl)c1ccccc1`: the Activity was 68%.

In the case of `C[C@@H](NC(=O)Nc1cc(C(C)(C)C)ccc1C(C)(C)C)c1ccccc1`, the Activity was 63%.

A further data set relates to Oryza sativa. Nature of the data set: Safener indices, ratio of compound effect of Oryza sativa (rice) growth rate to relieving activity against bensulfuron-methyl induced injury to Oryza sativa growth rate at 10 uM.
Conditions: not given
As to `CCOC(=O)c1ccc(NC(=O)N[C@@H](C)c2ccccc2)cc1`, the Ratio is recorded as 86.

As to `C[C@H](NC(=O)Nc1cc(F)cc(F)c1)c1ccccc1`, the Ratio came to 85.

For `C[C@@H](NC(=O)Nc1ccc(Cl)cc1)c1ccccc1`, the Ratio turned out to be 71.

As to `C[C@H](NC(=O)Nc1cc(C(F)(F)F)ccc1F)c1ccccc1`, the Ratio came out at 70.

On to `CCCCCCCc1ccc(NC(=O)N[C@H](C)c2ccccc2)cc1`, for which the Ratio was 9.

Regarding `CCCCc1ccc(NC(=O)N[C@H](C)c2ccccc2)cc1`, the Ratio was found to be 16.

With `C[C@@H](NC(=O)Nc1ccc(F)cc1F)c1ccccc1`, the Ratio is on record as 66.

`COc1ccccc1NC(=O)N[C@H](C)c1ccccc1`: the Ratio turned out to be 42.

For `C[C@@H](NC(=O)Nc1cc(Cl)ccc1Cl)c1ccccc1`, the Ratio stood at 52.

With `C[C@@H](NC(=O)Nc1cc(C(C)(C)C)ccc1C(C)(C)C)c1ccccc1`, the Ratio is on record as 43.

The subject of a further data set is Oryza sativa. Kind of data set: Effect on Oryza sativa (rice) assessed as growth rate at 0.1 uM relative to control. The format is organism-based. The conditions noted are these: in vivo.
Regarding `CCOC(=O)c1ccc(NC(=O)N[C@@H](C)c2ccccc2)cc1`, the Activity came to 99%.

As to `C[C@H](NC(=O)Nc1cc(F)cc(F)c1)c1ccccc1`, the Activity worked out at 99%.

Consider `C[C@@H](NC(=O)Nc1ccc(Cl)cc1)c1ccccc1`, for which the Activity was determined as 96%.

In the case of `C[C@H](NC(=O)Nc1cc(C(F)(F)F)ccc1F)c1ccccc1`, the Activity is given as 98%.

For `CCCCCCCc1ccc(NC(=O)N[C@H](C)c2ccccc2)cc1`, the Activity amounted to 100%.

On to `CCCCc1ccc(NC(=O)N[C@H](C)c2ccccc2)cc1`, for which the Activity stood at 100%.

As to `C[C@@H](NC(=O)Nc1ccc(F)cc1F)c1ccccc1`, the Activity came out at 100%.

In the case of `COc1ccccc1NC(=O)N[C@H](C)c1ccccc1`, the Activity was 100%.

On to `C[C@@H](NC(=O)Nc1cc(Cl)ccc1Cl)c1ccccc1`, for which the Activity is 99%.

For `C[C@@H](NC(=O)Nc1cc(C(C)(C)C)ccc1C(C)(C)C)c1ccccc1`, the Activity is listed as 100%.

A further data set relates to Oryza sativa. Kind of data set: Relieving activity against bensulfuron-methyl induced injury to Oryza sativa (rice) assessed as growth rate at 10 uM (Rbv = 46 to 53%). In kind it is functional.
Conditions: not given
Regarding `CCOC(=O)c1ccc(NC(=O)N[C@@H](C)c2ccccc2)cc1`, the Activity came to 92%.

Take `C[C@H](NC(=O)Nc1cc(F)cc(F)c1)c1ccccc1`: the Activity amounted to 93%.

For `C[C@@H](NC(=O)Nc1ccc(Cl)cc1)c1ccccc1`, the Activity was found to be 84%.

With `C[C@H](NC(=O)Nc1cc(C(F)(F)F)ccc1F)c1ccccc1`, the Activity is recorded as 84%.

Turning to `CCCCCCCc1ccc(NC(=O)N[C@H](C)c2ccccc2)cc1`, the Activity came to 53%.

In the case of `CCCCc1ccc(NC(=O)N[C@H](C)c2ccccc2)cc1`, the Activity is 28%.

`C[C@@H](NC(=O)Nc1ccc(F)cc1F)c1ccccc1`: the Activity worked out at 82%.

For `COc1ccccc1NC(=O)N[C@H](C)c1ccccc1`, the Activity worked out at 72%.

On to `C[C@@H](NC(=O)Nc1cc(Cl)ccc1Cl)c1ccccc1`, for which the Activity was 77%.

`C[C@@H](NC(=O)Nc1cc(C(C)(C)C)ccc1C(C)(C)C)c1ccccc1`: the Activity worked out at 73%.

In another data set the test system is Oryza sativa. Nature of the data set: Relieving activity against bensulfuron-methyl induced injury to Oryza sativa (rice) assessed as growth rate at 0.1 uM (Rbv = 46 to 53%). The format is functional.
Conditions: not given
`CCOC(=O)c1ccc(NC(=O)N[C@@H](C)c2ccccc2)cc1`: the Activity came to 76%.

For `C[C@H](NC(=O)Nc1cc(F)cc(F)c1)c1ccccc1`, the Activity is 64%.

For `C[C@@H](NC(=O)Nc1ccc(Cl)cc1)c1ccccc1`, the Activity is reported as 50%.

Turning to `C[C@H](NC(=O)Nc1cc(C(F)(F)F)ccc1F)c1ccccc1`, the Activity was 64%.

Consider `CCCCCCCc1ccc(NC(=O)N[C@H](C)c2ccccc2)cc1`, for which the Activity stood at 51%.

As for `CCCCc1ccc(NC(=O)N[C@H](C)c2ccccc2)cc1`, the Activity is reported as 57%.

On to `C[C@@H](NC(=O)Nc1ccc(F)cc1F)c1ccccc1`, for which the Activity is given as 53%.

Regarding `COc1ccccc1NC(=O)N[C@H](C)c1ccccc1`, the Activity is recorded as 54%.

For the molecule `C[C@@H](NC(=O)Nc1cc(Cl)ccc1Cl)c1ccccc1`, the Activity is listed as 64%.

`C[C@@H](NC(=O)Nc1cc(C(C)(C)C)ccc1C(C)(C)C)c1ccccc1`: the Activity is 57%.

System in a further data set: not listed separately
Kind of data set: Hydrophobicity, log K of the compound. In kind it is physicochemical. The conditions noted are these: octanol/water.
As for `CCOC(=O)c1ccc(NC(=O)N[C@@H](C)c2ccccc2)cc1`, the “log K” value worked out at 0.415.

Take `C[C@H](NC(=O)Nc1cc(F)cc(F)c1)c1ccccc1`: the “log K” value is 0.452.

Regarding `C[C@@H](NC(=O)Nc1ccc(Cl)cc1)c1ccccc1`, the “log K” value is given as 0.439.

As for `C[C@H](NC(=O)Nc1cc(C(F)(F)F)ccc1F)c1ccccc1`, the “log K” value was found to be 0.64.

Consider `CCCCCCCc1ccc(NC(=O)N[C@H](C)c2ccccc2)cc1`, for which the “log K” value is reported as 1.266.

Take `CCCCc1ccc(NC(=O)N[C@H](C)c2ccccc2)cc1`: the “log K” value is reported as 0.76.

`C[C@@H](NC(=O)Nc1ccc(F)cc1F)c1ccccc1`: the “log K” value amounted to 0.394.

Take `COc1ccccc1NC(=O)N[C@H](C)c1ccccc1`: the “log K” value is on record as 0.343.

`C[C@@H](NC(=O)Nc1cc(Cl)ccc1Cl)c1ccccc1`: the “log K” value was 0.704.

Consider `C[C@@H](NC(=O)Nc1cc(C(C)(C)C)ccc1C(C)(C)C)c1ccccc1`, for which the “log K” value stood at 1.001.

A further data set deals with Oryza sativa. Kind of data set: Safener indices, ratio of compound effect of Oryza sativa (rice) growth rate to relieving activity against bensulfuron-methyl induced injury to Oryza sativa growth rate at 0.1 uM.
Conditions: not given
Turning to `CCOC(=O)c1ccc(NC(=O)N[C@@H](C)c2ccccc2)cc1`, the Ratio turned out to be 53.

As for `C[C@H](NC(=O)Nc1cc(F)cc(F)c1)c1ccccc1`, the Ratio was 30.

Regarding `C[C@@H](NC(=O)Nc1ccc(Cl)cc1)c1ccccc1`, the Ratio is listed as 1.

Consider `C[C@H](NC(=O)Nc1cc(C(F)(F)F)ccc1F)c1ccccc1`, for which the Ratio came out at 26.

As to `CCCCCCCc1ccc(NC(=O)N[C@H](C)c2ccccc2)cc1`, the Ratio stood at 5.

Take `CCCCc1ccc(NC(=O)N[C@H](C)c2ccccc2)cc1`: the Ratio is listed as 13.

For the molecule `C[C@@H](NC(=O)Nc1ccc(F)cc1F)c1ccccc1`, the Ratio worked out at 4.

For the molecule `COc1ccccc1NC(=O)N[C@H](C)c1ccccc1`, the Ratio is given as -1.

With `C[C@@H](NC(=O)Nc1cc(Cl)ccc1Cl)c1ccccc1`, the Ratio turned out to be 26.

As for `C[C@@H](NC(=O)Nc1cc(C(C)(C)C)ccc1C(C)(C)C)c1ccccc1`, the Ratio is 11.

In a further data set the test system is Oryza sativa. Nature of the data set: Safener indices, ratio of compound effect of Oryza sativa (rice) growth rate to relieving activity against bensulfuron-methyl induced injury to Oryza sativa growth rate at 1 uM.
Conditions: not given
As to `CCOC(=O)c1ccc(NC(=O)N[C@@H](C)c2ccccc2)cc1`, the Ratio is 76.

`C[C@H](NC(=O)Nc1cc(F)cc(F)c1)c1ccccc1`: the Ratio was 58.

Take `C[C@@H](NC(=O)Nc1ccc(Cl)cc1)c1ccccc1`: the Ratio is reported as 61.

As for `C[C@H](NC(=O)Nc1cc(C(F)(F)F)ccc1F)c1ccccc1`, the Ratio came to 59.

Regarding `CCCCCCCc1ccc(NC(=O)N[C@H](C)c2ccccc2)cc1`, the Ratio is 5.

As for `CCCCc1ccc(NC(=O)N[C@H](C)c2ccccc2)cc1`, the Ratio was found to be 26.

As for `C[C@@H](NC(=O)Nc1ccc(F)cc1F)c1ccccc1`, the Ratio came out at 21.

In the case of `COc1ccccc1NC(=O)N[C@H](C)c1ccccc1`, the Ratio was -4.

With `C[C@@H](NC(=O)Nc1cc(Cl)ccc1Cl)c1ccccc1`, the Ratio worked out at 37.

With `C[C@@H](NC(=O)Nc1cc(C(C)(C)C)ccc1C(C)(C)C)c1ccccc1`, the Ratio was determined as 23.

The test system of another data set is Oryza sativa. Nature of the data set: Effect on Oryza sativa (rice) assessed as growth rate at 10 uM relative to control. In kind it is organism-based. The conditions noted are these: in vivo.
For the molecule `CCOC(=O)c1ccc(NC(=O)N[C@@H](C)c2ccccc2)cc1`, the Activity came out at 92%.

`C[C@H](NC(=O)Nc1cc(F)cc(F)c1)c1ccccc1`: the Activity came out at 99%.

For the molecule `C[C@@H](NC(=O)Nc1ccc(Cl)cc1)c1ccccc1`, the Activity is on record as 87%.

With `C[C@H](NC(=O)Nc1cc(C(F)(F)F)ccc1F)c1ccccc1`, the Activity is listed as 87%.

On to `CCCCCCCc1ccc(NC(=O)N[C@H](C)c2ccccc2)cc1`, for which the Activity worked out at 100%.

For the molecule `CCCCc1ccc(NC(=O)N[C@H](C)c2ccccc2)cc1`, the Activity worked out at 28%.

As to `C[C@@H](NC(=O)Nc1ccc(F)cc1F)c1ccccc1`, the Activity is 93%.

On to `COc1ccccc1NC(=O)N[C@H](C)c1ccccc1`, for which the Activity is 96%.

Take `C[C@@H](NC(=O)Nc1cc(Cl)ccc1Cl)c1ccccc1`: the Activity was determined as 101%.

Turning to `C[C@@H](NC(=O)Nc1cc(C(C)(C)C)ccc1C(C)(C)C)c1ccccc1`, the Activity is 99%.

The values are drawn from ChEMBL document CHEMBL3045406, “Enantioselective Relieving Activity of α-Methylbenzylphenylureas toward Bensulfuron-methyl Injury to Rice (Oryza sativa)” (Biosci Biotechnol Biochem, 1999).
